{"source": "patent US8673552B2", "about": "“Druggable regions in the dengue virus envelope glycoprotein and methods of using the same” (Children's Medical Center Corporation, priority 2003, dated 2014)", "target": "T1, trimeric, post-fusion form of sE (dengue envelope protein E, residues 1-395) (Dengue virus type 2, UniProt P12823)", "T1 construct": "post-fusion form of sE, the fragment of E spanning residues 1-395; purchased Hawaii Biotech (Hawaii Biotechnology Group, Inc., Aiea, Hi.); host or cells: Drosophila melanogaster Schneider 2 cells (pMtt vector, prM-E preprotein processed during secretion)", "assay": "fluorescence depolarization binding of stem peptides to sE trimer", "excerpt": "FIG. 10 depicts fluorescence depolarization binding data for a peptide corresponding to residues 396-429 (in the “stem” region) of dengue envelope protein (E). FIG. 10A depicts a Kd analysis of the peptide's binding affinity to the trimeric, post-fusion form of E. FIG. 10B depicts a competitive binding analysis with the fluorescent and unlabeled peptide.\nFIG. 11 depicts a fluorescence depolarization Kd analysis to measure the affinity between a peptide corresponding to residues 413-447 (in the “stem” region) of dengue envelope protein (E). and the trimeric, post-fusion form of E.\nA peptide corresponding to residues 396-429 (in the “stem” region) of dengue envelope protein (E) binds with fairly high affinity and specificity to the trimeric, post-fusion form of sE, the fragment of E spanning residues 1-395, which we crystallized first in the pre-fusion form and then in the post-fusion form. We determined the dissociation constant (Kd) of the peptide from sE from fluorescence depolarization measurements using a fluorescently labeled version of the peptide. The Kd is around 6 μM. This indicates a fairly strong binding. FIG. 10 depicts the fluorescence depolarization results. The Kd is approximately equal to the concentration of sE at which the depolarization (in mP) reaches its half-maximal value (see FIG. 10A). […]", "note": "pKd: −log10 of the molar value. Ends that are not written are not given here.", "data": [{"molecule": "AILGDTAWDFGSLGGVFTSIGKALHQVFGAIYGAA [413-447]", "values": [{"measurement": "pKd", "value": "~5.40"}]}, {"molecule": "CC[C@H](C)[C@H](NC(=O)[C@H](C)NC(=O)[C@H](CCSC)NC(=O)[C@H](CCCNC(=N)N)NC(=O)[C@H](CCCCN)NC(=O)[C@H](C)NC(=O)CNC(=O)[C@H](CCCNC(=N)N)NC(=O)[C@H](CCSC)NC(=O)[C@@H](NC(=O)[C@@H](NC(=O)[C@H](CCC(=O)O)NC(=O)[C@H](Cc1ccccc1)NC(=O)[C@H](CCSC)NC(=O)[C@H](CCC(N)=O)NC(=O)CNC(=O)[C@@H](NC(=O)[C@H](CO)NC(=O)[C@@H](N)CO)[C@@H](C)CC)[C@@H](C)O)[C@@H](C)O)C(=O)N[C@@H](CC(C)C)C(=O)NCC(=O)N[C@@H](CC(=O)O)C(=O)N[C@H](C(=O)N[C@@H](C)C(=O)N[C@@H](Cc1c[nH]c2ccccc12)C(=O)N[C@@H](CC(=O)O)C(=O)N[C@@H](Cc1ccccc1)C(=O)NCC(=O)N[C@@H](CO)C(=O)N[C@@H](CC(C)C)C(=O)NCC(=O)NCC(=O)N[C@H](C(=O)N[C@@H](Cc1ccccc1)C(=O)O)C(C)C)[C@@H](C)O", "note": "[396-429]", "values": [{"measurement": "competitive binding of fluorescent and unlabeled peptide", "setting": "fluorescence depolarization, FIG. 10B, shows that binding is specific to one site of sE", "value": "can be competed off of sE with unlabeled peptide"}]}]}
